The target of assay [1] is Recombinant MAPKAPK2 (MK-2) (Homo sapiens, UniProt P49137). The assay is described as follows: Determination of MK-2 IC50 (phosphorylation of HSP-peptide, anion exchange resin capture assay). Type of assay: biochemical.
For a further assay, the system named is TNFα release, U937 cells. The assay is described as follows: U937 Cell TNFα Release Assay (LPS, ELISA). As to conditions: additional values are replicate IC50 experiments. It counts as cell-based, human. How it is done:
U937 Cell TNFα Release Assay
Differentiation of U937 to monocytic/macrophage-like cells is induced by the addition of phorbol12-myristate 13-acetate (Sigma) at final concentration of 20 ng/ml to a culture of U937 cells at ˜0.5 million cells/ml and incubated for 24 hrs. The cells are centrifuged, washed with PBS and resuspended in fresh media without PMA and incubated for 24 hrs. Cells adherent to the culture flask are harvested by scraping, centrifugation, and resuspended in fresh media to 2 million cells/ml, and 0.2 ml is aliquoted to each of 96 wells in flat-bottom plate. Cells are then incubated for an additional 24 hrs to allow for recovery. The media is removed from the cells, and 0.1 ml of fresh media is added per well. 0.05 ml of serially diluted compound or control vehicle (Media with DMSO) is added to the cells. […] Cells are incubated at 37° C. for 4 hrs. After 4 hrs incubation, supernatants are harvest and assayed by ELISA for the presence of TNFα.
Coating solution was aspirated the following day and wells were blocked with 1 mg/ml gelatin in PBS (plus 1× thimerasol) for 2 days at 4° C. Prior to using, wells were washed 3× with wash buffer (PBS with 0.05% Tween). Cultured media samples were diluted in EIA buffer (5 mg/ml bovine γ-globulin, 1 mg/ml gelatin, 1 ml/l Tween-20, 1 mg/ml thimerasol in PBS), added to wells (0.1 ml/well) in triplicate and allowed to incubate for 1.5 hr at 37° C. in a humidified chamber. […] TNF levels were quantitated from a recombinant human TNFα (R&D Systems #210-TA-010) standard curve using a quadratic parameter fit generated by SoftMaxPRO software. ELISA sensitivity was approximately 30 pg TNF/ml. IC50 values for compounds were generated using BioAssay Solver.

For assay [2], the system named is collagen-induced arthritis. The conditions noted are these: mouse; cited from earlier work.
A further assay deals with endotoxin-induced shock. As to conditions: murine model of endotoxin-induced shock; cited from earlier work.
A further assay concerns MK-2. As to conditions: cited from earlier work.
The next assay has as its system adjuvant arthritis. As to conditions: rat; cited from earlier work.
[3] abbreviates: MK-2 Avg. IC50, additional values are replicate IC50 experiments.
Where [4] appears, read: Homo sapiens, U-937, 4 h, LPS 100 ng/ml, 4 hrs, differentiated U937 cells, read-out: TNF Release Assay Avg. IC50.
The mark [5] stands for this setting: additional values are replicate IC50 experiments, read-out: MK-2 Avg. IC50.
[6] abbreviates: Homo sapiens, U-937, 4 h, read-out: TNF Release Assay Avg. IC50, LPS 100 ng/ml, 4 hrs, differentiated U937 cells.

“And” between values parts separate entries of the source, which are not always exact repeats. Equal entries are not always repeated. Structures can show the parent of a compound that is named as a salt. Where two headings read alike, the source gives them in different places.

Sequence of Recombinant MAPKAPK2 (MK-2) (P49137 whole entry, species assumed): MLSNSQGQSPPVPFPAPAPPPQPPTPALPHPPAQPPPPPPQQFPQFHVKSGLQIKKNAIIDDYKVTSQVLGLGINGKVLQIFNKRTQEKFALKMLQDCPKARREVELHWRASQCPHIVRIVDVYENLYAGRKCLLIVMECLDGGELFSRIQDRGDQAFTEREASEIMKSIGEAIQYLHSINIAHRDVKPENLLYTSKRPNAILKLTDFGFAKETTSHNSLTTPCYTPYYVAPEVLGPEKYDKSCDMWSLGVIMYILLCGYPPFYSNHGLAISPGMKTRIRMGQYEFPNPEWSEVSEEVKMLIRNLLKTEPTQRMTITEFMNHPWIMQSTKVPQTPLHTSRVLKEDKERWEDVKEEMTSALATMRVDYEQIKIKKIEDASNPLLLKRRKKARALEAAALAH

For `COc1ccc2[nH]c3c(c2c1)C1CCN(C1)C3C(=O)OCC(C)(C)C` (centres unmarked) [hydrochloride], the IC50 in assay [1] (setting [3]) stood at 20.6 µM.

For the molecule `CNC(=O)C1c2[nH]c3ccc(OC)cc3c2C2CCN1C2` (centres unmarked) [compound 44, 7-methoxy-N-methyl-3,4,5,10-tetrahydro-1H-2,5-methanoazepino[3,4-b]indole-1-carboxamide], the IC50 in the assay on TNFα release, U937 cells (setting [4]) is greater than 100 µM.

Take `COc1ccc2[nH]c3c(c2c1)C1CCN(C1)C3c1ccc[nH]1` (centres unmarked) [compound 50, 7-methoxy-1-(1H-pyrrol-2-yl)-3,4,5,10-tetrahydro-1H-2,5-methanoazepino[3,4-b]indole trifluoroacetate]: the IC50 in assay [1] (setting [5]) was greater than 200 µM.

Consider `CSc1ccc2[nH]c3c(c2c1)C1CCN(C1)C3C(=O)O` (centres unmarked) [No. 4, 7-(methylthio)-3,4,5,10-tetrahydro-1H-2,5-methanoazepino[3,4-b]indole-1-carboxylic acid], for which the IC50 in the assay with TNFα release, U937 cells (LPS 100 ng/ml, 4 hrs, differentiated U937 cells, read-out: TNF Release Assay Avg. IC50) is greater than 100 µM.

As to `COCCOC(=O)C1c2[nH]c3ccc(OC)cc3c2C2CCN1C2` (centres unmarked), the IC50 with TNFα release, U937 cells (read-out: TNF Release Assay Avg. IC50, LPS 100 ng/ml, 4 hrs, differentiated U937 cells, listed as 15) is 3.58 µM; in assay [1] (setting [3]) it was 4.72 µM and 4.96 µM.

For the molecule `COc1ccc2[nH]c3c(c2c1)C1CCN(C1)C3C(=O)N(C)C` (centres unmarked) [compound 46, 7-methoxy-N,N-dimethyl-3,4,5,10-tetrahydro-1H-2,5-methanoazepino[3,4-b]indole-1-carboxamide], the IC50 in the assay on TNFα release, U937 cells (setting [4]) is greater than 100 µM; in assay [1] (setting [3]), greater than 200 µM.

Take `O=C(OCc1ccccc1)C1c2[nH]c3ccc(OCc4ccccc4)cc3c2C2CCN1C2` (centres unmarked) [compound 47, benzyl 7-(benzyloxy)-3,4,5,10-tetrahydro-1H-2,5-methanoazepino[3,4-b]indole-1-carboxylate trifluoroacetate]: the IC50 in the assay on TNFα release, U937 cells (setting [4]) was 76.7 µM; in assay [1] (setting [5]), greater than 200 µM.

Consider `COc1ccc2[nH]c3c(c2c1)C1CCN(C1)C3C(=O)NCc1ccccc1` (centres unmarked) [compound 45, N-benzyl-7-methoxy-3,4,5,10-tetrahydro-1H-2,5-methanoazepino[3,4-b]indole-1-carboxamide hydrochloride], for which the IC50 in assay [1] (setting [3]) was greater than 200 µM.

As to `COc1ccc2[nH]c3c(c2c1)C1CCN(C1)C3C(=O)OCCO` (centres unmarked), the IC50 with TNFα release, U937 cells (setting [6]) is greater than 100 µM; in assay [1] (setting [3]), 5.64 µM.

Regarding `COc1ccc2[nH]c3c(c2c1)C1CCN(C1)C3C(=O)OCCSC` (centres unmarked), in assay [1] (setting [3]), the IC50 amounted to 4.4 µM.

With `COCCNC(=O)C1c2[nH]c3ccc(OC)cc3c2C2CCN1C2` (centres unmarked) [compound 49, 7-methoxy-N-(2-methoxyethyl)-3,4,5,10-tetrahydro-1H-2,5-methanoazepino[3,4-b]indole-1-carboxamide], in the assay on TNFα release, U937 cells (setting [4]), the IC50 is greater than 100 µM.

As to `COc1ccc2[nH]c3c(c2c1)C1CCN(C1)C3C(=O)OC12CC3CC(CC(C3)C1)C2` (centres unmarked) [compound 42], the IC50 in the assay on TNFα release, U937 cells (setting [6]) worked out at 42.4 µM.

Consider `COc1ccc2[nH]c3c(c2c1)C1CCN(C1)C3C(=O)OC1CCCCC1` (centres unmarked) [trifluoroacetate], for which the IC50 with TNFα release, U937 cells (read-out: TNF Release Assay Avg. IC50, LPS 100 ng/ml, 4 hrs, differentiated U937 cells, listed as 37, trifluoroacetate) worked out at 50.4 µM; in assay [1] (setting [3]) it was 45.2 µM.

`COc1ccc2[nH]c3c(c2c1)C1CCN(C1)C3C(N)=O` (centres unmarked) [compound 48, 7-methoxy-3,4,5,10-tetrahydro-1H-2,5-methanoazepino[3,4-b]indole-1-carboxamide]: the IC50 was greater than 100 µM in the assay with TNFα release, U937 cells (setting [4]) and greater than 200 µM in assay [1] (setting [3]).

Take `CCCCCCOC(=O)C1c2[nH]c3ccc(OC)cc3c2C2CCN1C2` (centres unmarked) [trifluoroacetate]: the IC50 in assay [1] (setting [3]) was determined as 29.7 µM.

For the molecule `COCCOC(=O)C1c2[nH]c3ccc(O)cc3c2C2CCN1C2` (centres unmarked) [trifluoroacetate], in assay [1] (setting [3]), the IC50 stood at 6.88 µM.

As for `COc1ccc2[nH]c3c(c2c1)C1CCN(C1)C3C(=O)OCC1CCCCC1` (centres unmarked) [No. 15, hydrochloride], in assay [1] (setting [5]), the IC50 was 38.5 µM.

Consider `COc1ccc2[nH]c3c(c2c1)C1CCN(C1)C3C(=O)N(C)OC` (centres unmarked) [trifluoroacetate], for which the IC50 in assay [1] (setting [3]) was 91 µM and 98.2 µM.

With `COc1ccc2[nH]c3c(c2c1)C1CCN(C1)C3C(=O)OC1CCCCC1` (centres unmarked) [hydrochloride], in the assay on TNFα release, U937 cells (read-out: TNF Release Assay Avg. IC50, LPS 100 ng/ml, 4 hrs, differentiated U937 cells, listed as 38, hydrochloride), the IC50 was 59.1 µM.

Consider `C[S+]([O-])c1ccc(-c2nc(-c3ccncc3)c(-c3ccc(F)cc3)[nH]2)cc1` (centres unmarked) [SB203580], for which the “development of collagen-induced arthritis” value in assay [2] is “inhibit the development”. Moreover, in the assay on endotoxin-induced shock, the mortality entry is on record as “reduce mortality”. In addition, the “inhibition of activation of MK-2” value in the assay on MK-2 is listed as “inhibit activation”. Moreover, the “development of adjuvant arthritis” value in the assay on adjuvant arthritis is recorded as “inhibit the development”.

Turning to `COc1ccc2[nH]c3c(c2c1)C1CCN(C1)C3C(=O)OC(C)(C)C` (centres unmarked) [compound 41, tert-butyl 7-methoxy-3,4,5,10-tetrahydro-1H-2,5-methanoazepino[3,4-b]indole-1-carboxylate], the IC50 is greater than 100 µM in the assay on TNFα release, U937 cells (setting [6]) and 112 µM in assay [1] (setting [5]).

For `COCCOC(=O)C1c2[nH]c3ccc(OC)cc3c2C2CCN1C2` (centres unmarked) [trifluoroacetate], the IC50 in assay [1] (setting [3]) was 6.49 µM.

These data come from patent US20050101623A1 (Pharmacia Corporation, priority 2003, published 2005).
